Test results taken from BigSolDB 2.1.

Cc1ccc(N)c([N+](=O)[O-])c1
Details	solubility (mole fraction)
in 1,2-dichloroethane, 278.15 K	0.0289
in 1,2-dichloroethane, 280.65 K	0.0326
in 1,2-dichloroethane, 283.15 K	0.0355
in 1,2-dichloroethane, 285.65 K	0.0397
in 1,2-dichloroethane, 288.15 K	0.0432
in 1,2-dichloroethane, 290.65 K	0.0468
in 1,2-dichloroethane, 293.15 K	0.0506
in 1,2-dichloroethane, 295.65 K	0.0548
in 1,2-dichloroethane, 298.15 K	0.0594
in 1,2-dichloroethane, 300.65 K	0.0642
in 1,2-dichloroethane, 303.15 K	0.0692
in 1,2-dichloroethane, 305.65 K	0.0747
in 1,2-dichloroethane, 308.15 K	0.0806
in 1,2-dichloroethane, 310.65 K	0.087
in 1,2-dichloroethane, 313.15 K	0.0937
in 1,2-dichloroethane, 315.65 K	0.101
in 1,2-dichloroethane, 318.15 K	0.109
in 1,4-dioxane, 283.15 K	0.0404
in 1,4-dioxane, 285.65 K	0.0452
in 1,4-dioxane, 288.15 K	0.0507
in 1,4-dioxane, 290.65 K	0.0568
in 1,4-dioxane, 293.15 K	0.0637
in 1,4-dioxane, 295.65 K	0.0712
in 1,4-dioxane, 298.15 K	0.0794
in 1,4-dioxane, 300.65 K	0.0883
in 1,4-dioxane, 303.15 K	0.0986
in 1,4-dioxane, 305.65 K	0.11
in 1,4-dioxane, 308.15 K	0.121
in 1,4-dioxane, 310.65 K	0.134
in 1,4-dioxane, 313.15 K	0.149
in 2-butanone, 278.15 K	0.12
in 2-butanone, 280.65 K	0.128
in 2-butanone, 283.15 K	0.136
in 2-butanone, 285.65 K	0.144
in 2-butanone, 288.15 K	0.153
in 2-butanone, 290.65 K	0.162
in 2-butanone, 293.15 K	0.171
in 2-butanone, 295.65 K	0.181
in 2-butanone, 298.15 K	0.191
in 2-butanone, 300.65 K	0.202
in 2-butanone, 303.15 K	0.213
in 2-butanone, 305.65 K	0.224
in 2-butanone, 308.15 K	0.236
in 2-butanone, 310.65 K	0.249
in 2-butanone, 313.15 K	0.261
in DMF, 278.15 K	0.0984
in DMF, 280.65 K	0.105
in DMF, 283.15 K	0.112
in DMF, 285.65 K	0.122
in DMF, 288.15 K	0.131
in DMF, 290.65 K	0.14
in DMF, 293.15 K	0.15
in DMF, 295.65 K	0.161
in DMF, 298.15 K	0.171
in DMF, 300.65 K	0.182
in DMF, 303.15 K	0.194
in DMF, 305.65 K	0.206
in DMF, 308.15 K	0.219
in DMF, 310.65 K	0.232
in DMF, 313.15 K	0.247
in acetonitrile, 278.15 K	0.0274
in acetonitrile, 280.65 K	0.0302
in acetonitrile, 283.15 K	0.0334
in acetonitrile, 285.65 K	0.0369
in acetonitrile, 288.15 K	0.0406
in acetonitrile, 290.65 K	0.0447
in acetonitrile, 293.15 K	0.0493
in acetonitrile, 295.65 K	0.0543
in acetonitrile, 298.15 K	0.0602
in acetonitrile, 300.65 K	0.0657
in acetonitrile, 303.15 K	0.0721
in acetonitrile, 305.65 K	0.0794
in acetonitrile, 308.15 K	0.0872
in acetonitrile, 310.65 K	0.0955
in acetonitrile, 313.15 K	0.105
in chlorobenzene, 278.15 K	0.016
in chlorobenzene, 280.65 K	0.0174
in chlorobenzene, 283.15 K	0.0194
in chlorobenzene, 285.65 K	0.0216
in chlorobenzene, 288.15 K	0.0239
in chlorobenzene, 290.65 K	0.0262
in chlorobenzene, 293.15 K	0.0288
in chlorobenzene, 295.65 K	0.0316
in chlorobenzene, 298.15 K	0.0349
in chlorobenzene, 300.65 K	0.0383
in chlorobenzene, 303.15 K	0.0421
in chlorobenzene, 305.65 K	0.0463
in chlorobenzene, 308.15 K	0.0507
in chlorobenzene, 310.65 K	0.0556
in chlorobenzene, 313.15 K	0.0611
in chlorobenzene, 315.65 K	0.0671
in chlorobenzene, 318.15 K	0.0738
in ethanol, 278.15 K	0.00983
in ethanol, 280.65 K	0.0107
in ethanol, 283.15 K	0.0118
in ethanol, 285.65 K	0.0128
in ethanol, 288.15 K	0.0139
in ethanol, 290.65 K	0.0152
in ethanol, 293.15 K	0.0165
in ethanol, 295.65 K	0.0179
in ethanol, 298.15 K	0.0194
in ethanol, 300.65 K	0.021
in ethanol, 303.15 K	0.0228
in ethanol, 305.65 K	0.0246
in ethanol, 308.15 K	0.0266
in ethanol, 310.65 K	0.0289
in ethanol, 313.15 K	0.0312
in ethyl acetate, 278.15 K	0.076
in ethyl acetate, 280.65 K	0.0816
in ethyl acetate, 283.15 K	0.087
in ethyl acetate, 285.65 K	0.0933
in ethyl acetate, 288.15 K	0.0996
in ethyl acetate, 290.65 K	0.106
in ethyl acetate, 293.15 K	0.113
in ethyl acetate, 295.65 K	0.12
in ethyl acetate, 298.15 K	0.128
in ethyl acetate, 300.65 K	0.136
in ethyl acetate, 303.15 K	0.144
in ethyl acetate, 305.65 K	0.153
in ethyl acetate, 308.15 K	0.162
in ethyl acetate, 310.65 K	0.172
in ethyl acetate, 313.15 K	0.182
in isopropanol, 278.15 K	0.0102
in isopropanol, 280.65 K	0.0112
in isopropanol, 283.15 K	0.0122
in isopropanol, 285.65 K	0.0134
in isopropanol, 288.15 K	0.0146
in isopropanol, 290.65 K	0.0161
in isopropanol, 293.15 K	0.0176
in isopropanol, 295.65 K	0.0192
in isopropanol, 298.15 K	0.0209
in isopropanol, 300.65 K	0.0227
in isopropanol, 303.15 K	0.0248
in isopropanol, 305.65 K	0.0268
in isopropanol, 308.15 K	0.0293
in isopropanol, 310.65 K	0.0317
in isopropanol, 313.15 K	0.0346
in methanol, 278.15 K	0.00863
in methanol, 280.65 K	0.00933
in methanol, 283.15 K	0.0104
in methanol, 285.65 K	0.0112
in methanol, 288.15 K	0.0121
in methanol, 290.65 K	0.0133
in methanol, 293.15 K	0.0144
in methanol, 295.65 K	0.0156
in methanol, 298.15 K	0.0169
in methanol, 300.65 K	0.0182
in methanol, 303.15 K	0.0198
in methanol, 305.65 K	0.0213
in methanol, 308.15 K	0.023
in methanol, 313.15 K	0.0268
in n-butanol, 278.15 K	0.0126
in n-butanol, 280.65 K	0.0138
in n-butanol, 283.15 K	0.0152
in n-butanol, 285.65 K	0.0166
in n-butanol, 288.15 K	0.018
in n-butanol, 290.65 K	0.0197
in n-butanol, 293.15 K	0.0214
in n-butanol, 295.65 K	0.0232
in n-butanol, 298.15 K	0.0253
in n-butanol, 300.65 K	0.0273
in n-butanol, 303.15 K	0.0297
in n-butanol, 305.65 K	0.0321
in n-butanol, 308.15 K	0.0348
in n-butanol, 310.65 K	0.0376
in n-butanol, 313.15 K	0.0406
in n-propanol, 278.15 K	0.0111
in n-propanol, 280.65 K	0.012
in n-propanol, 283.15 K	0.0132
in n-propanol, 285.65 K	0.0143
in n-propanol, 288.15 K	0.0157
in n-propanol, 290.65 K	0.017
in n-propanol, 293.15 K	0.0185
in n-propanol, 295.65 K	0.0202
in n-propanol, 298.15 K	0.0218
in n-propanol, 300.65 K	0.0237
in n-propanol, 303.15 K	0.0257
in n-propanol, 305.65 K	0.0278
in n-propanol, 310.65 K	0.0326
in n-propanol, 313.15 K	0.0352
in tetrachloromethane, 278.15 K	0.00242
in tetrachloromethane, 280.65 K	0.00265
in tetrachloromethane, 283.15 K	0.00297
in tetrachloromethane, 285.65 K	0.00333
in tetrachloromethane, 288.15 K	0.00371
in tetrachloromethane, 290.65 K	0.00406
in tetrachloromethane, 293.15 K	0.00452
in tetrachloromethane, 295.65 K	0.00497
in tetrachloromethane, 298.15 K	0.0055
in tetrachloromethane, 300.65 K	0.00602
in tetrachloromethane, 303.15 K	0.00662
in tetrachloromethane, 305.65 K	0.00721
in tetrachloromethane, 308.15 K	0.00797
in tetrachloromethane, 310.65 K	0.00876
in tetrachloromethane, 313.15 K	0.00963
in tetrachloromethane, 315.65 K	0.0105
in tetrachloromethane, 318.15 K	0.0117
in toluene, 278.15 K	0.0118
in toluene, 280.65 K	0.0131
in toluene, 283.15 K	0.0146
in toluene, 285.65 K	0.016
in toluene, 288.15 K	0.0176
in toluene, 290.65 K	0.0194
in toluene, 293.15 K	0.0215
in toluene, 295.65 K	0.0236
in toluene, 298.15 K	0.0259
in toluene, 300.65 K	0.0284
in toluene, 303.15 K	0.0312
in toluene, 305.65 K	0.0343
in toluene, 308.15 K	0.0375
in toluene, 310.65 K	0.0411
in toluene, 313.15 K	0.045
